No end group written: not given here.
Columns and labels:
[1] = tested on: MDR clinical strains of ESKAPE pathogens and E. coli provided by the CDC (AR isolates panel); test: Advanced testing, MIC against CDC AR isolates panel; type: cell-based; settings: colistin-resistant strains
Protocol: (§1) Bacteria. Bacterial clinical isolates, used for initial screening and in previous studies [Greber K E et al., 2017], were anonymously provided by the clinical microbiology laboratory of the University of Pittsburgh medical Center. The panel used for secondary screening was from CDC (Table 4), with resistance profiles data. Bacteria are stored in lock-secured −80° C. freezer and typically retrieved by obtaining single colonies on agar plates prior for subsequent liquid broth cultures. Suspensions of test bacteria were prepared from log phase of growth by diluting overnight cultures at 1:100 with fresh cation-adjusted MHB (MHB2, Millipore Sigma, USA) and incubating for additional 3-4 hours. Bacteria were spun at 3000×g for 10 minutes and the pellet resuspended in test condition media (Millipore Sigma, USA) to determine bacterial turbidity using a Den-1B densitometer (Grant Instruments, USA) at 0.5 McFarland (unit of bacterial density) corresponding to […].
(§2) Antibacterial assays. To examine antibacterial activity, this study used minor modifications of a standard growth inhibition assay endorsed by the Clinical and Laboratory Standards Institute (CLSI), as previously described [Greber K E et al., 2017]. Bacteria were incubated with each of the indicated peptides in MHB2. The bacterial cells were kept in an incubator for 18 hours at 37° C., which is linked to a robotic system that feeds a plate reader every hour with one of 8×96-well plates. This set-up allows the collection of growth kinetic data at A 570 (absorbance at 570 nm) to examine growth inhibition in real time (BioTek Instruments, USA). […] To assess bactericidal properties of the peptide, the assay was modified by using 15% fetal bovine serum (FBS, for a more physiologically relevant test condition) mixed with 25% MHB2 and 60% PBS. Bacterial cells (colony forming unit/mL or CFU/mL) were enumerated after incubating treated bacteria for 3 hours and plating serially diluted samples on broth agar medium at 37° C. overnight. […] For killing kinetics, we slightly modified the bactericidal assay to examine bacterial killing at the MBC (or 2×MBC) as a function of time for up to 3 hours. Data were analyzed using GraphPad Prism software.

E. coli = test: microbe, parasite or virus in culture
Protocol: as §1, §2

P. aeruginosa = test: microbe, parasite or virus in culture
Protocol: as §1, §2

[2] = Mouse toxicity, maximum tolerated dose; type: in vivo, CD-1 mice
Protocol: Mouse toxicity. For all animal experiments, the protocol #18071776 approved by the Institutional Animal Care and Use Committee (IACUC) of the University of Pittsburgh was used, which is consistent with the NIH guide for the care and use of laboratory animals. In a preliminary (pilot) experiment, female CD-1 mice (3 per group) weighing about 20 g were injected different doses of peptides up to 45 mpk via a lateral tail vein (IV) to determine an MTD (dose that results in no apparent morbidity or mortality). To confirm the MTD determined in the pilot study, CD-1 mice (7 per group) were randomized to receive a dose based on the preliminary MTD (IV) or PBS (100 μL). The animals were monitored for up to 7 days for morbidity and survival.

For RRVWRRVRRVWRRVRRVVRRVW [E71], the cross-resistance with colistin [1] was “no cross-resistance at all” and the MIC (E. coli) was 1 µM.

RRVWRRVRRVWRRVRRVWRRVV [E75] showed an MIC (P. aeruginosa) of 13 µM.

With RRVWRWVRRVWRWVRR [E35] the morbidity and mortality ([2]; 7 mice, systemically at 30 mpk) was “no apparent morbidity and mortality” and the “maximum tolerated dose, MTD” value ([2]; CD-1 mice, tail vein (IV)) was 30 mpk.

For RRWVRRVRRVWRRVRRVVRRWV [E4], the cross-resistance with colistin [1] was “no cross-resistance at all”.

With RRWVRWVRRWVRWVRR [E80] the MIC (P. aeruginosa) was 2 µM.

Sequence RVWRRVRRVWRRVRRVWRRV [E69] has an MIC (P. aeruginosa) of 2 µM.

In the case of RWVRRVRRWVRRVRRVVRRW [E70], the cross-resistance with colistin [1] is reported as “no cross-resistance at all”.

In the case of RWVRRVRRWVRRVRRWVRRV [E68], the cross-resistance with colistin [1] is reported as “no cross-resistance at all”.

Source: patent US20240197823A1, “CATIONIC ANTIMICROBIAL PEPTIDES AND USES THEREOF” (priority 2021, published 2024)
